In ChEMBL document CHEMBL5113392, “Novel hybrid pyrrolidinedione-thiazolidinones as potential anticancer agents: Synthesis and biological evaluation” (Eur J Med Chem, 2022):

Legend:
[1] = test system: UO-31; assay: Anticancer activity against human UO-31 cells assessed as inhibition of cell growth at 10 uM incubated for 48 hrs by SRB assay; assay type: functional; details: UO-31, 48 h, values are per cent of control
[2] = test system: HCC 2998; assay: Anticancer activity against human HCC 2998 cells assessed as inhibition of cell growth at 10 uM incubated for 48 hrs by SRB assay; assay type: functional; details: HCC 2998, 48 h, values are per cent of control
[3] = test system: RXF 393; assay: Anticancer activity against human RXF 393 cells assessed as inhibition of cell growth at 10 uM incubated for 48 hrs by SRB assay; assay type: functional; details: RXF 393, 48 h, values are per cent of control
[4] = test system: EKVX; assay: Anticancer activity against human EKVX cells assessed as growth inhibition incubated for 48 hrs by SRB assay; assay type: functional
[5] = test system: CCRF-CEM; assay: Anticancer activity against human CCRF-CEM cells assessed as total growth inhibition incubated for 48 hrs by SRB assay; assay type: functional
[6] = test system: HOP-92; assay: Anticancer activity against human HOP-92 cells assessed as growth inhibition incubated for 48 hrs by SRB assay; assay type: functional
[7] = test system: NCI-H460; assay: Anticancer activity against human NCI-H460 cells assessed as growth inhibition incubated for 48 hrs by SRB assay; assay type: functional
[8] = test system: SF-539; assay: Anticancer activity against human SF-539 cells assessed as growth inhibition incubated for 48 hrs by SRB assay; assay type: functional
[9] = test system: MDA-MB-435; assay: Anticancer activity against human MDA-MB-435 cells assessed as growth inhibition incubated for 48 hrs by SRB assay; assay type: functional
[10] = test system: SK-MEL-28; assay: Anticancer activity against human SK-MEL-28 cells assessed as growth inhibition incubated for 48 hrs by SRB assay; assay type: functional
[11] = test system: OVCAR-5; assay: Anticancer activity against human OVCAR-5 cells assessed as growth inhibition incubated for 48 hrs by SRB assay; assay type: functional
[12] = test system: 786-0; assay: Anticancer activity against human 786-0 cells assessed as growth inhibition incubated for 48 hrs by SRB assay; assay type: functional
[13] = test system: Hs-578T; assay: Anticancer activity against human Hs-578T cells assessed as growth inhibition incubated for 48 hrs by SRB assay; assay type: functional
[14] = test system: BT-549; assay: Anticancer activity against human BT-549 cells assessed as growth inhibition incubated for 48 hrs by SRB assay; assay type: functional
[15] = test system: T47D; assay: Anticancer activity against human T47D cells assessed as growth inhibition incubated for 48 hrs by SRB assay; assay type: functional
[16] = test system: MDA-MB-468; assay: Anticancer activity against human MDA-MB-468 cells assessed as growth inhibition incubated for 48 hrs by SRB assay; assay type: functional
[17] = Selectivity index, ratio of GI50 for human HaCaT cells to GI50 for human U-251 cells; assay type: toxicity; details: HaCaT cells versus U-251 cells, read-out: RatioGI50
[18] = test system: MOLT-4; assay: Anticancer activity against human MOLT-4 cells assessed as total growth inhibition incubated for 48 hrs by SRB assay; assay type: functional
[19] = test system: EKVX; assay: Anticancer activity against human EKVX cells assessed as total growth inhibition incubated for 48 hrs by SRB assay; assay type: functional
[20] = test system: HOP-92; assay: Anticancer activity against human HOP-92 cells assessed as total growth inhibition incubated for 48 hrs by SRB assay; assay type: functional
[21] = test system: HCT-116; assay: Anticancer activity against human HCT-116 cells assessed as total growth inhibition incubated for 48 hrs by SRB assay; assay type: functional
[22] = test system: M14; assay: Anticancer activity against human M14 cells assessed as total growth inhibition incubated for 48 hrs by SRB assay; assay type: functional
[23] = test system: OVCAR-3; assay: Anticancer activity against human OVCAR-3 cells assessed as total growth inhibition incubated for 48 hrs by SRB assay; assay type: functional
[24] = test system: NCI/ADR-RES; assay: Anticancer activity against human NCI/ADR-RES cells assessed as total growth inhibition incubated for 48 hrs by SRB assay; assay type: functional
[25] = test system: ACHN; assay: Anticancer activity against human ACHN cells assessed as total growth inhibition incubated for 48 hrs by SRB assay; assay type: functional
[26] = test system: CAKI-1; assay: Anticancer activity against human CAKI-1 cells assessed as total growth inhibition incubated for 48 hrs by SRB assay; assay type: functional
[27] = test system: SN12C; assay: Anticancer activity against human SN12C cells assessed as total growth inhibition incubated for 48 hrs by SRB assay; assay type: functional
[28] = test system: PC-3; assay: Anticancer activity against human PC-3 cells assessed as total growth inhibition incubated for 48 hrs by SRB assay; assay type: functional
[29] = test system: MCF7; assay: Anticancer activity against human MCF7 cells assessed as total growth inhibition incubated for 48 hrs by SRB assay; assay type: functional
[30] = test system: BT-549; assay: Anticancer activity against human BT-549 cells assessed as total growth inhibition incubated for 48 hrs by SRB assay; assay type: functional
[31] = test system: HL-60; assay: Anticancer activity against human HL-60 cells assessed as lethality incubated for 48 hrs by SRB assay; assay type: functional; details: read-out: LC50 (the source's name)
[32] = test system: A549; assay: Anticancer activity against human A549 cells assessed as lethality incubated for 48 hrs by SRB assay; assay type: functional; details: read-out: LC50 (the source's name)
[33] = test system: EKVX; assay: Anticancer activity against human EKVX cells assessed as lethality incubated for 48 hrs by SRB assay; assay type: functional; details: read-out: LC50 (the source's name)
[34] = test system: HOP-62; assay: Anticancer activity against human HOP-62 cells assessed as lethality incubated for 48 hrs by SRB assay; assay type: functional; details: read-out: LC50 (the source's name)
[35] = test system: NCI-H522; assay: Anticancer activity against human NCI-H522 cells assessed as lethality incubated for 48 hrs by SRB assay; assay type: functional; details: read-out: LC50 (the source's name)
[36] = test system: Malme-3M; assay: Anticancer activity against human Malme-3M cells assessed as lethality incubated for 48 hrs by SRB assay; assay type: functional; details: read-out: LC50 (the source's name)
[37] = test system: MDA-MB-435; assay: Anticancer activity against human MDA-MB-435 cells assessed as lethality incubated for 48 hrs by SRB assay; assay type: functional; details: read-out: LC50 (the source's name)
[38] = test system: UACC-62; assay: Anticancer activity against human UACC-62 cells assessed as lethality incubated for 48 hrs by SRB assay; assay type: functional; details: read-out: LC50 (the source's name)
[39] = test system: OVCAR-8; assay: Anticancer activity against human OVCAR-8 cells assessed as lethality incubated for 48 hrs by SRB assay; assay type: functional; details: read-out: LC50 (the source's name)
[40] = test system: CAKI-1; assay: Anticancer activity against human CAKI-1 cells assessed as lethality incubated for 48 hrs by SRB assay; assay type: functional; details: read-out: LC50 (the source's name)
[41] = test system: RXF 393; assay: Anticancer activity against human RXF 393 cells assessed as lethality incubated for 48 hrs by SRB assay; assay type: functional; details: read-out: LC50 (the source's name)
[42] = Selectivity index, ratio of GI50 for human HaCaT cells to GI50 for human A549 cells; assay type: toxicity; details: HaCaT cells versus A549 cells, read-out: RatioGI50
[43] = Selectivity index, ratio of GI50 for human HaCaT cells to GI50 for human HeLa cells; assay type: toxicity; details: HaCaT cells versus HeLa cells, read-out: RatioGI50
[44] = Selectivity index, ratio of GI50 for human HaCaT cells to GI50 for human HCT-116 cells; assay type: toxicity; details: HaCaT cells versus HCT-116 cells, read-out: RatioGI50
[45] = Selectivity index, ratio of GI50 for human HaCaT cells to GI50 for human SK-OV-3 cells; assay type: toxicity; details: HaCaT cells versus SK-OV-3 cells, read-out: RatioGI50
[46] = test system: Lymphocyte; assay: Induction of morphological changes in mitogen activated human peripheral blood lymphocytes assessed as increase in number of single cells incubated for 24 hrs by Hoechst 33258 and propidium iodide staining based fluorescence microscopy; assay type: toxicity, cell-based
[47] = test system: Salmon testes DNA; assay: Displacement of methyl green from salmon sperm DNA at 10 uM measured after 2 hrs by fluorescence plate reader method relative to control; assay type: nucleic-acid assay; details: Salmo salar

O=C1CC(N2C(=O)/C(=C/C(Cl)=C/c3ccc([N+](=O)[O-])cc3)SC2=S)C(=O)N1c1ccc(O)cc1 (centres undefined)
growth, % of control at 10 µM [1]: -75.2%
growth, % of control at 10 µM [2]: -81.6%
growth, % of control at 10 µM [3]: -70.5%
GI50 [4]: 3.25 µM
TGI [5]: 3.87 µM
GI50 [6]: 1.62 µM
GI50 [7]: 2.55 µM
GI50 [8]: 1.72 µM
GI50 [9]: 2.01 µM
GI50 [10]: 1.95 µM
GI50 [11]: 1.91 µM
GI50 [12]: 1.23 µM
GI50 [13]: 2.8 µM
GI50 [14]: 2.03 µM
GI50 [15]: 2.45 µM
GI50 [16]: 1.87 µM
selectivity ratio [17]: 66.9
TGI [18]: 15.3 µM
TGI [19]: 11.7 µM
TGI [20]: 3.72 µM
TGI [21]: 2.14 µM
TGI [22]: 3.31 µM
TGI [23]: 1.96 µM
TGI [24]: 12.1 µM
TGI [25]: 2.76 µM
TGI [26]: 2.42 µM
TGI [27]: 5.88 µM
TGI [28]: 2.87 µM
TGI [29]: 10.7 µM
TGI [30]: 4.21 µM
CC50 [31]: > 100 µM
CC50 [32]: 50.8 µM
CC50 [33]: 35.3 µM
CC50 [34]: > 100 µM
CC50 [35]: 9.65 µM
CC50 [36]: 21 µM
CC50 [37]: 9.37 µM
CC50 [38]: 6.86 µM
CC50 [39]: > 100 µM
CC50 [40]: 5.12 µM
CC50 [41]: 6.76 µM
selectivity ratio [42]: 10.2
selectivity ratio [43]: 12
selectivity ratio [44]: 16.3
selectivity ratio [45]: 0.74
Activity [46]: Toxic
Activity [47]: 6.2%

O=C1CC(N2C(=O)/C(=C/C(Cl)=C/c3ccc([N+](=O)[O-])cc3)SC2=S)C(=O)N1c1ccc(Cl)cc1 (centres undefined)
growth, % of control at 10 µM [1]: -42.9%
growth, % of control at 10 µM [2]: -22.9%
growth, % of control at 10 µM [3]: -64.1%
GI50 [4]: 3.11 µM
TGI [5]: 12.4 µM
GI50 [6]: 2.58 µM
GI50 [7]: 3.3 µM
GI50 [8]: 1.69 µM
GI50 [9]: 1.65 µM
GI50 [10]: 1.71 µM
GI50 [11]: 2.04 µM
GI50 [12]: 1.63 µM
GI50 [13]: 1.8 µM
GI50 [14]: 1.75 µM
GI50 [15]: 2.03 µM
GI50 [16]: 1.33 µM
selectivity ratio [17]: 11.2
TGI [18]: 13.4 µM
TGI [19]: > 100 µM
TGI [20]: 6.79 µM
TGI [21]: 3.04 µM
TGI [22]: 5.06 µM
TGI [23]: 2.62 µM
TGI [24]: 6.19 µM
TGI [25]: 3.48 µM
TGI [26]: 3.28 µM
TGI [27]: 11.1 µM
TGI [28]: 4.15 µM
TGI [29]: > 100 µM
TGI [30]: 3.74 µM
CC50 [31]: > 100 µM
CC50 [32]: > 100 µM
CC50 [33]: > 100 µM
CC50 [34]: > 100 µM
CC50 [35]: 14.1 µM
CC50 [36]: > 100 µM
CC50 [37]: 6.98 µM
CC50 [38]: 12 µM
CC50 [39]: > 100 µM
CC50 [40]: 9.52 µM
CC50 [41]: 5.86 µM
selectivity ratio [42]: 1.56
selectivity ratio [43]: 15
selectivity ratio [44]: 10.9
selectivity ratio [45]: 1.52
Activity [46]: Toxic
Activity [47]: 7.9%
